Patent publication US11098083B2, “Peptide that regulates fat metabolism and method for regulating fat metabolism” (SHENZHEN INSTITUTES OF ADVANCED TECHNOLOGY, priority 2017, dated 2021)
Ends that are not written are not given here.

How the values were obtained:
Format in all cases: in vivo, C57BL/6 mice
DIO-NAFLD mice [1] = assay: i.p. injection of ISAP1 in DIO-NAFLD mice: liver fat (appearance, oil red O staining); conditions: daily i.p. injection 6 weeks
Text: S122: effect of i.p. injection of ISAP1 on the liver may be studied.
In S121, livers may be collected while collecting the adipose tissues, and appearance of the livers may be photographed. A part of liver tissues may be taken for frozen sectioning, stained with oil red O for microscopic observation, and then a same area may be quantitatively analyzed. […] The […] the color is, the higher the fat content is contained.

DIO-NAFLD mice [2] = assay: i.p. injection of ISAP1 in DIO-NAFLD mice: epididymal fat pad
Text: S110: a diet-induced obesity and nonalcoholic fatty liver disease (DIO-NAFLD) mouse model by HFD feeding may be established.
Thirty specific pathogen free (SPF) level healthy 6-week-old male C57BL/6 mice may be purchased from the Experimental Animal Center of Guangdong Province. A body mass of each mouse may be 18 g to 22 g. The mice may be divided into two groups, housed in a SPF-grade animal facility of SIAT. Six mice may be fed with ND (the ND contains 5% of fat; 53% of carbohydrate; 23% of protein, having total calories of […]) for 12 weeks to be a ND control group, and may be allowed to have food and water ad lib. The other mice may be fed with HFD (the HFD may be D12451, Research Diets, Inc.) for 12 weeks, and may be allowed to have food and water ad lib. Physiological indexes of the mice may be detected. […] In the present embodiment, an average body weight of the DIO-NAFLD mice may be more than 40 g. Comparison of average body weight of the mice of the established model with that of the mice in the ND control group is shown in FIG. 1. The arrow indicates a time point at which the HFD be started.
S121: effect of i.p. injection of ISAP1 on epididymal fat pad may be studied.
When the body weight of the each mouse fed with the HFD is more than 40 g, and when the blood glucose level of the each mouse is above 10 mMol, each DIO-NAFLD mouse may be treated with i.p. injection of ISAP1 for 6 consecutive weeks. The DIO-NAFLD mice may be divided into 4 groups, 6 mice in each group. ISAP1 may be dissolved in normal saline solution containing 0.01% of BSA. A dosage of 20 pmol/g of ISAP1 may be i.p. injected into each DIO-NAFLD mouse in group #1 once a day, and a dosage of 2 pmol/g of ISAP1 may be i.p. injected into each DIO-NAFLD mouse in group #2 once a day. OCN (mouse OCN protein) may be prepared and administered similarly as the ISAP1 at a dosage of 6 pmol/g to each mouse in group #3. The mice in group #4 may be treated with normal saline only as a HFD control group. After 6 weeks, the mice may be euthanized by application of 95% CO2, and epididymal fat pads of 4 mice selected from each group and an epididymal fat pad of a mouse from the ND control group may collected and weighed. Paraffin slices of each epididymal fat pad may be prepared, and an area of the adipocytes may be observed by microscopy.
Statistical analysis may be performed to compare with the HFD control group, wherein *: P<0.05, **: P<0.01, and ***: P<0.001.

HFD mice = assay: gavage of peptides in HFD mice: triglyceride in feces, week 7; conditions: gavage 2 pmol/g, feces of week 7, compared with HFD control group, FIG. 7B
Protocol: Feces of each mouse may be collected in week 7, baked at 60° C. for 3 days to ensure complete dryness. Then, 1 mg of the feces may be collected and soaked in 1 ml of a mixed solution consisting of chloroform and methanol in a ratio of 2:1. The soaked feces may then be disrupted with a tissue homogenizer and centrifuged to obtain a supernatant. The supernatant may be detected for triglyceride by the Roche blood biochemical analyzer. Experimental results are shown in FIG. 7B. **: P<0.01, ***: P<0.001.
(§1) Feces of the mice may be collected in the 7th week of the experiment and baked at 60° C. for 3 days to ensure complete dryness. Then, 1 mg of the feces may be weighed and soaked in 1 ml of a mixed solution containing chloroform and methanol in a ratio of 2:1. The feces with the mixed solution may be disrupted by a tissue homogenizer and centrifuged to obtain a supernatant. The supernatant may be detected for triglyceride by the Roche blood biochemical analyzer.
as §1, with “2:1.The” for “2:1. The”
as §1, with “each mouse” for “the mice”, “experiment,” for “experiment”, “dryness.” for “dryness. Then,”, “in” for “with”

DIO-NAFLD mice [3] = assay: i.p. injection of ISAP1 in DIO-NAFLD mice: liver functions and blood lipids; conditions: daily i.p. 6 weeks, even at 2 pmol/g, compared with HFD control group, FIG. 4
Text: S123: the effect of i.p. injection of ISAP1 on liver functions and blood lipids in mice may be studied.
In S121, before sacrificing the mice, blood of each mouse may be collected from a tail vein and detected for a level of alanine aminotransferases (ALT), a level of alkaline phosphatases (ALP), a level of aspartate aminotransferases (AST), a serum level of cholesterols, a level of low-density lipoprotein (LDL), and a level of high-density lipoprotein (HDL) using a Roche […] (model cobas 8000) as per manufacturer's instructions.

YLGASVPSPDPLEPT [ISAP1]
proportion of fat in the liver (oil red O staining) (DIO-NAFLD mice [1]; compared with HFD control group, FIG. 3C): decreased significantly
liver fat accumulation (liver appearance) (DIO-NAFLD mice [1]; vs HFD+carrier, FIG. 3A): significantly reduce the liver fat accumulation
size of the epididymal fat pads (DIO-NAFLD mice [2]; daily i.p. injection 6 weeks (20 or 2 pmol/g), compared with HFD control group, FIG. 2A): significantly reduce the size
weight (average mass) of the epididymal fat pad (DIO-NAFLD mice [2]; daily i.p. injection 6 weeks (20 or 2 pmol/g), compared with HFD control group, FIG. 2B): significantly reduce the weight
sizes of adipocytes, H&E staining of epididymal fat pads (DIO-NAFLD mice [2]; daily i.p. injection 6 weeks, compared with HFD control group, FIG. 2C): significantly reduce sizes of adipocytes
average surface areas of single adipocytes calculated from H&E stained slices (DIO-NAFLD mice [2]; daily i.p. injection 6 weeks, double-blind, FIG. 2D): significantly reduce the sizes of the adipocytes
content (level) of triglyceride in the feces (HFD mice): significantly increased
level of alanine aminotransferases (ALT) in blood (DIO-NAFLD mice [3]): effective in reducing
level of alkaline phosphatases (ALP) in blood (DIO-NAFLD mice [3]): effective in reducing
level of aspartate aminotransferases (AST) in blood (DIO-NAFLD mice [3]): effective in reducing
level of low-density lipoprotein (LDL) (DIO-NAFLD mice [3]): effective in reducing
serum level of cholesterols (DIO-NAFLD mice [3]): effective in reducing
